# Measurements from ChEMBL document CHEMBL4602732, “Optimizing Pyrazolopyrimidine Inhibitors of Calcium Dependent Protein Kinase 1 for Treatment of Acute and Chronic Toxoplasmosis” (J Med Chem, 2020).
# The source made the active and inactive calls. The rule behind the calls is not given here.
# Assays:
# [1] = molecular target: Casein kinase I epsilon (CKepsilon) (Homo sapiens, UniProt P49674); assay: Inhibition of recombinant human full-length His-tagged CKepsilon expressed in baculovirus expression system at 1 uM by Lanthascreen assay relative to control
# Chain of Casein kinase I epsilon (CKepsilon) (P49674 whole entry): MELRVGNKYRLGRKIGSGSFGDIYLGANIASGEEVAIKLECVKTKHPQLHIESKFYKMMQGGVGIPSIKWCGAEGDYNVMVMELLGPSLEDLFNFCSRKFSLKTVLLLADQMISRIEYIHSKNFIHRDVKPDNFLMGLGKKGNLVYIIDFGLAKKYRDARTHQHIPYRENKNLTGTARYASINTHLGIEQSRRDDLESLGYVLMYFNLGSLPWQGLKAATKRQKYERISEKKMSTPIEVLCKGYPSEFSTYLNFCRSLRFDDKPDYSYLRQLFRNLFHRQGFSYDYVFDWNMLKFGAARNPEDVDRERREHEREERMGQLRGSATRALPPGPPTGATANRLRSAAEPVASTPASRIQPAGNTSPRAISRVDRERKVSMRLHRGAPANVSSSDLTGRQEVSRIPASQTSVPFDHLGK
# Aldehyde oxidase = molecular target: T1, Aldehyde oxidase (Homo sapiens, UniProt Q06278); assay: Drug metabolism in human liver S9 fraction assessed as aldehyde oxidase-mediated drug metabolism by measuring rate of parent compound decay at 1 uM measured after 90 mins by LC-MS/MS analysis; assay type: ADME, subcellular
# T1 sequence (Q06278 whole entry): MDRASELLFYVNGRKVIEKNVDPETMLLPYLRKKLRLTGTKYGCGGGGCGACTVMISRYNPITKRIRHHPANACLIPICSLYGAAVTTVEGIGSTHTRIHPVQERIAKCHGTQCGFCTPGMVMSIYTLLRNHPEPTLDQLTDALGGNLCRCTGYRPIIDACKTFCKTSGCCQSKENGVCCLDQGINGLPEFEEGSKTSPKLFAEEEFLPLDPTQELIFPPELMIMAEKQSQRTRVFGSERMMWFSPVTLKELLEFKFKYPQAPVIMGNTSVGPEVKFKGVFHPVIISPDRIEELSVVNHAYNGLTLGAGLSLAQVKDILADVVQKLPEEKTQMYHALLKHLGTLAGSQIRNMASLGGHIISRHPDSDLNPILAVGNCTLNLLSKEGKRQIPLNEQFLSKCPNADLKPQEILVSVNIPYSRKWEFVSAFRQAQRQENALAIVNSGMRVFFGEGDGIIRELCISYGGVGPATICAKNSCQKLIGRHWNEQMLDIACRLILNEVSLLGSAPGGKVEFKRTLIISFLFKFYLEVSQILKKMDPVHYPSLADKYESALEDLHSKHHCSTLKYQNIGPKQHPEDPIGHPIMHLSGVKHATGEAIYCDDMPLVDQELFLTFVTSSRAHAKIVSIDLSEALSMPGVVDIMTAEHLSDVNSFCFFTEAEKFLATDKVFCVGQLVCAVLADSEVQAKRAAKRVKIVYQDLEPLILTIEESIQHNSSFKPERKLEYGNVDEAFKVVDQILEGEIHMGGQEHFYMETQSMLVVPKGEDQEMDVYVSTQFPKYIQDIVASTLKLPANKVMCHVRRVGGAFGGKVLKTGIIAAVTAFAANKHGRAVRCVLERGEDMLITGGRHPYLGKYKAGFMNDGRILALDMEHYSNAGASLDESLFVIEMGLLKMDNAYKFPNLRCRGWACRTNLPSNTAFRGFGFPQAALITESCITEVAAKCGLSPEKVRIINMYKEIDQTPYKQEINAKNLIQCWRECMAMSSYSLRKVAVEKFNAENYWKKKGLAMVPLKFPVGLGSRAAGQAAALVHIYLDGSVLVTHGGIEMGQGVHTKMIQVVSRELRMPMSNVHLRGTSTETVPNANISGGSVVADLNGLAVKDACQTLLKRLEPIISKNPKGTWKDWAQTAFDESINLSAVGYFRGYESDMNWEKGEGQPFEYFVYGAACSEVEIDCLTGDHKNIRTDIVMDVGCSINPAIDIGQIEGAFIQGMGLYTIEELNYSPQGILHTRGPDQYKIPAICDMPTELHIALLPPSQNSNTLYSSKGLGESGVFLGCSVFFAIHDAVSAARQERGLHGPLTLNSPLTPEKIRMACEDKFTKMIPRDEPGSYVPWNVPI
# LCK = LCK (Homo sapiens, UniProt P06239); assay: Inhibition of wild-type human partial length LCK (R207 to P509 residues) expressed in bacterial expression system at 10 uM by Kinomescan method relative to control
# Chain of LCK (P06239 whole entry, the tested form may be a part): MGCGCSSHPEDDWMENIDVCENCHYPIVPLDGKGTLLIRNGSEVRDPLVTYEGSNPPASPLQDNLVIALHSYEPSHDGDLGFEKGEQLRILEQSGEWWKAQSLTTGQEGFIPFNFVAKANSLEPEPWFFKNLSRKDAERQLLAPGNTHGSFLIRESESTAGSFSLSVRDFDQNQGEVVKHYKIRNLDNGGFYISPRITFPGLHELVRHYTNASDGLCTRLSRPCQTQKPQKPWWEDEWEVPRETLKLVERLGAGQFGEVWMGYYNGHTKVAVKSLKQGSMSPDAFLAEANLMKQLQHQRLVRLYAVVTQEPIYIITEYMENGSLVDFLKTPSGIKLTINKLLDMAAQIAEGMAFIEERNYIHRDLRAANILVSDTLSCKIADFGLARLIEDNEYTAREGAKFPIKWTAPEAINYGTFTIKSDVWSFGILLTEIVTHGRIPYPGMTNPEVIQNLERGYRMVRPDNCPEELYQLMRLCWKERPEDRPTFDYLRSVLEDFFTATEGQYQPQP
# [2] = Genotoxicity in Salmonella typhimurium TA98 at 0.004 to 5 mg/ml measured after 90 mins in absence of rat S9 fraction by mini-Ames test; assay type: toxicity; conditions: salmonella enterica subsp. enterica serovar typhimurium
# CHO-K1 = assay: Genotoxicity in CHOK1 cells measured after 3 hrs in presence of Sprague-Dawley rat liver S9 fraction by Hoechst/calcein-AM staining based micronucleus test; assay type: toxicity, cell-based, Cricetulus griseus; conditions: chinese hamster, s9, 3 h
# [3] = Cytotoxicity against human SH-SY5Y cells assessed as cell growth at 20 uM measured after 72 hrs by cellTiter 96 AQueous non-radioactive cell proliferation assay relative to control; assay type: cell-based; conditions: read-out: Activity
# [4] = Inhibition of Toxoplasma gondii full-length C-terminal His-tagged CDPK1 G128M mutant expressed in Escherichia coli BL21(DE3)V2RpAcYc-LIC+LamP using syntide-2 peptide as substrate incubated for 20 to 40 mins by ELISA
# [5] = Half life in CD1 mouse at 3 mg/kg, iv or 10 mg/kg, po administered via gavage by LC-MS/MS analysis; assay type: ADME, organism-based; conditions: in vivo
# [6] = Cytotoxicity against human Caco2 cells assessed as cell growth at 20 uM measured after 72 hrs by cellTiter 96 AQueous non-radioactive cell proliferation assay relative to control; assay type: cell-based, Caco-2; conditions: read-out: Activity
# Toxoplasma gondii [7] = assay: Antiparasitic activity against type 1 Toxoplasma gondii RH tachyzoites infected in CD1 mouse assessed as reduction in mouse death at 60 mg/kg, po administered once daily via gavage for 7 days followed by lung and brain isolation on 15 days post-infection and co-culture with naive CD1 mouse; assay type: functional, organism-based
# Toxoplasma gondii [8] = assay: Protection against reactivation of type 2 Toxoplasma gondii ME49 infection in sulfadiazin-treated Ifngr1-/- CD1 mouse assessed as increase in mouse survival at 60 mg/kg, po administered twice daily via gavage for 21 days measured up to 30 days; assay type: functional, organism-based
# [9] = Protein binding in mouse brain assessed as unbound fraction; assay type: ADME, tissue-based
# Toxoplasma gondii [10] = assay: Antiparasitic activity against type 1 Toxoplasma gondii RH tachyzoites infected in CD1 mouse assessed as reduction in parasite expansion at 30 mg/kg, po administered twice daily via gavage for 7 days by bioluminescence assay; assay type: functional, organism-based
# Toxoplasma gondii [11] = assay: Protection against reactivation of type 2 Toxoplasma gondii ME49 infection in sulfadiazin-treated Ifngr1-/- CD1 mouse assessed as increase in weight gain at 60 mg/kg, po administered twice daily via gavage for 21 days measured up to 30 days; assay type: functional, organism-based
# Toxoplasma gondii [12] = assay: Protection against reactivation of type 2 Toxoplasma gondii ME49 infection in sulfadiazin-treated Ifngr1-/- CD1 mouse assessed as reduction in mouse death at 60 mg/kg, po administered twice daily via gavage for 8 days measured up to 30 days; assay type: functional, organism-based
# MAP4K4 = MAP4K4 (Homo sapiens, UniProt O95819); assay: Inhibition of recombinant human GST-tagged MAP4K4 catalytic domain expressed in baculovirus expression system at 1 uM by Lanthascreen assay relative to control
# Chain of MAP4K4 (O95819 whole entry, the tested form may be a part): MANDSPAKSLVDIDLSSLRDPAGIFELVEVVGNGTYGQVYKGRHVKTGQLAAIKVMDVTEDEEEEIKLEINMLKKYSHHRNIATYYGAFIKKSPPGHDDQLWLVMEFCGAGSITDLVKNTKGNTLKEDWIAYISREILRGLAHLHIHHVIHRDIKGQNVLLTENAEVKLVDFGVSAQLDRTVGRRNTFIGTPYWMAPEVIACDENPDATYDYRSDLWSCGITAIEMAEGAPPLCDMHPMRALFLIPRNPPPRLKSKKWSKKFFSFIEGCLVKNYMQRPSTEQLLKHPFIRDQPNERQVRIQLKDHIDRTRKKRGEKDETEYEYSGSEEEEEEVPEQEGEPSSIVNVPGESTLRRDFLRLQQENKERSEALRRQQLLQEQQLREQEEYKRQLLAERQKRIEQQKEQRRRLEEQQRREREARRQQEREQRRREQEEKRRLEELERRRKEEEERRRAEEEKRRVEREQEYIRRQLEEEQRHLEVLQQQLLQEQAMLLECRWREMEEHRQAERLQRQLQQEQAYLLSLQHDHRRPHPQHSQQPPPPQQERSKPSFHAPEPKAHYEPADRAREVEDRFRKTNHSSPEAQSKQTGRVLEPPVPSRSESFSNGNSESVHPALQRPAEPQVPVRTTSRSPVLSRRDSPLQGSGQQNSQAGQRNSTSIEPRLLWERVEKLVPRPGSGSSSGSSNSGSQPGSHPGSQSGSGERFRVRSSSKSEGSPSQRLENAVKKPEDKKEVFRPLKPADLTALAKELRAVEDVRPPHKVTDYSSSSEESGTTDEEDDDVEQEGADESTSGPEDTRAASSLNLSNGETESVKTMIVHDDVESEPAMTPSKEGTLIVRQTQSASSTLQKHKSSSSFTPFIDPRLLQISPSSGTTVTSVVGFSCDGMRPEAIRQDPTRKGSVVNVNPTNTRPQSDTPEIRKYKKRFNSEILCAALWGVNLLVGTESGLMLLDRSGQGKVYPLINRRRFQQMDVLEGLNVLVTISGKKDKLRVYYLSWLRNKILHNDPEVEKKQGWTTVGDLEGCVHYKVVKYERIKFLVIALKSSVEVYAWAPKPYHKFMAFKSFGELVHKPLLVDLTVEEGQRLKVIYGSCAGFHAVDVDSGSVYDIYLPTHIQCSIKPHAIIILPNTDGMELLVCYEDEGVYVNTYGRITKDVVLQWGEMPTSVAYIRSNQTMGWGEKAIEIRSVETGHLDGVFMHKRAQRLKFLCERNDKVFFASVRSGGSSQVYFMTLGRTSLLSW
# Toxoplasma gondii [13] = assay: Protection against reactivation of type 2 Toxoplasma gondii ME49 infection in sulfadiazin-treated Ifngr1-/- CD1 mouse assessed as reduction in serological conversion at 60 mg/kg, po administered twice daily via gavage for 21 days followed by brain isolation on 30 days post-infection and co-culture with Ifngr1-/- CD1 mouse; assay type: functional, organism-based
# Toxoplasma gondii [14] = assay: Antiparasitic activity against type 1 Toxoplasma gondii RH tachyzoites infected in CD1 mouse assessed as reduction in mouse death at 30 mg/kg, po administered twice daily via gavage for 7 days by bioluminescence assay; assay type: functional, organism-based
# Toxoplasma gondii [15] = assay: Antiparasitic activity against type 2 Toxoplasma gondii ME49 tachyzoites infected in HFF assessed as reduction in parasite growth; assay type: functional, organism-based
# Toxoplasma gondii [16] = assay: Antiparasitic activity against type 1 Toxoplasma gondii RH tachyzoites infected in CD1 mouse assessed as reduction in mouse death at 15 mg/kg, po administered four times daily via gavage for 7 days by bioluminescence assay; assay type: functional, organism-based
smiles,measurement,setting,value
N#Cc1ccnc(Oc2nn([C@H]3C[C@H](F)C3)c3ncnc(N)c23)c1,inhibition at 1 µM,[1],> 50%
same,Drug metabolism,Aldehyde oxidase,< 3.2 µL/min/mg
same,inhibition at 10 µM,LCK,74%
same,Activity,[2],Non-Toxic
same,Activity,CHO-K1,> 100 µM
same,"viability at 72 h, 20 µM",[3],103%
same,IC50,[4],> 20 µM
same,t1/2,[5],1.43 h
same,"viability at 72 h, 20 µM",[6],95.5%
Nc1ncnc2c1c(Oc1cc(C(F)(F)F)ccn1)nn2C1CC1,Activity,Toxoplasma gondii [7],inactive
same,inhibition at 1 µM,[1],> 50%
same,Activity,Toxoplasma gondii [8],Active
same,fraction unbound,[9],0.101
same,Activity,Toxoplasma gondii [10],Active
same,Activity,Toxoplasma gondii [11],Active
same,Drug metabolism,Aldehyde oxidase,< 3.2 µL/min/mg
same,inhibition at 10 µM,LCK,55%
same,Activity,Toxoplasma gondii [12],Active
same,Activity,[2],Non-Toxic
same,inhibition at 1 µM,MAP4K4,> 50%
same,Activity,Toxoplasma gondii [13],Active
same,Activity,Toxoplasma gondii [14],Active
same,Activity,CHO-K1,> 1000 µM
same,"viability at 72 h, 20 µM",[3],103%
same,IC50,[4],> 20 µM
same,t1/2,[5],4.2 h
same,EC50,Toxoplasma gondii [15],0.26 µM
same,Activity,Toxoplasma gondii [16],Active
same,"viability at 72 h, 20 µM",[6],93.3%
